# Data as given in patent US9028856B2, “Synergistic pesticide compositions” (priority 2008, dated 2015).
# Entries after “also recorded” stand apart in the source; their conditions may differ.
# What was measured:
# [1] = system: malaria mosquito (Anopheles gambiae); assay: Five-minute exposure bioassay, WHO Adult Mosquito Susceptibility Test Kit, treated filter paper; type: in vivo; details: for KT 50 / KT 95 / % knock down after 10′ / % knock down after 15′ / % knock down after 20′ / % knock down after 25′ / % knock down after 30′ / % knock down after 45′ / % knock down after 60′ / % mortality 1 d: Table 80, filter paper (mg/m^2); for % mortality 1 d: mortality 24 hours post exposure; for % knock down after 5′: Table 80, technical sample on filter paper (mg/m^2)
# Experimental: The bioassays were carried out using the WHO Adult Mosquito Susceptibility Test Kit, (WHO/VBC 81.805, 1981) with plastic cylinders (4.5 cm diameter, 12 cm height). All bioassays were done using preferably female sugar fed Anopheles gambiae mosquitoes. Knock down was recorded after at 5, 10, 15, 20, 25, 30, 45 and 60 minutes, when the mosquitoes were supplied with a 5% sugar water source for 24 hours. Mortality was recorded 24 hours post exposure. Each test consisted of three replicates from which the mean values were calculated. The insecticides (all technical grades) were applied as 2 ml acetone solutions onto filter papers (12 cm×15 cm).
# [2] = system: tropical house mosquito Culex quinquefasciatus (adults, 3 days old); assay: Efficacy of formulations on surfaces (glazed/unglazed tiles, plywood), ten 3 day old mosquitoes, 3 min exposure; type: in vivo; details: Culex quinquefasciatus, 3 min exposure, mostly 0.1% bendiocarb + 1% additive on glazed tiles
# Experimental: The ingredients were diluted in acetone to give a concentration which corresponds to the desired quantity of a.i./m^2. A 1 ml quantity of the solution was applied by pipette onto the 15 cm×15 cm surfaces without treating the outer edge of 1 cm.
# Ten 3 day old Culex quinquefasciatus mosquitoes were exposed to each treatment for 3 minutes under a perforated petri dish, and then a clean untreated white paper index card was moved between treated surface and petri dish. A water-soaked cotton pad was applied immediately after.
# Each test consisted of three replicates (three batches of ten mosquitoes were exposed for three minutes to the same surface, each one hour later), of which the mean values are calculated.
# The test insects were Culex quinquefasciatus (adults, 3 days old). The compositions were evaluated for their ability to provide effective knock down after 3, 9, 15, and 30 minutes, 1, 2, 3, 4 and 24 hours (mortality). The experiments were performed in triplicate on glazed tile, but not repeated on wood.
# Test Insects are Culex quinquefasciatus (adults, 3 days old). The Application provides the technical compounds were dissolved in acetone and applied as 1 ml solutions onto glazed tiles (15 cm×15 cm). An evaluation is provided at knock down after 3, 9, 15, and 30 minutes, 1, 2, 3, 4 and 24 hours (mortality). There are 3 replicates.
# Test Insects: Culex quinquefasciatus (adults, 3 days old)
# Application: The technical compounds were dissolved in acetone and applied as 1 ml solutions onto glazed tiles (15 cm×15 cm).
# Evaluation: Knock down after 3, 9, 15, and 30 minutes, 1, 2, 3, 4 and 24 hours (mortality) […]
# Application: The active ingredients were applied as 1 ml acetone solutions onto glazed tiles (15 cm×15 cm) […]
# For the mosquitoes, the USDA Petri Dish Method is used. Ten 3 day old Culex quinquefasciatus mosquitoes are exposed to each treatment for 3 minutes under a perforated petri dish and then a clean untreated white paper index card is moved between treated surface and petri dish. A water-soaked cotton pad is applied immediately after. […]
SMILES,KT 50 [1] [min],KT 95 [1] [min],% knock down after 10′ [1] [%],% knock down after 15′ [1] [%],% knock down after 20′ [1] [%],% knock down after 25′ [1] [%],% knock down after 30′ [1] [%],% knock down after 45′ [1] [%],% knock down after 60′ [1] [%],% mortality 1 d [1] [%],% knock down after 5′ [1] [%],efficacy enhancement of the insecticide by the additive (summary in words) ([2]; details as worded),also measured
CNC(=O)Oc1cccc2c1OC(C)(C)O2 [5 mg Bendiocarb],>60,>60,6,6,6,6,6,6,6,12,6,–,–
CC1(C)[C@H](C(=O)O[C@H](C#N)c2cccc(Oc3ccccc3)c2)[C@@H]1C=C(Br)Br [5 mg DTM],>60,>60,6,4,6,6,7,15,19,13,6,–,–
CNC(=O)Oc1cccc2c1OC(C)(C)O2 [10 mg Bendiocarb],>60,>60,2,2,27,2,2,2,2,9,2,–,–
CC1(C)[C@H](C(=O)O[C@H](C#N)c2cccc(Oc3ccccc3)c2)[C@@H]1C=C(Br)Br [10 mg DTM],>60,>60,2,2,2,5,9,18,26,17,0,–,–
CNC(=O)Oc1cccc2c1OC(C)(C)O2 [20 mg Bendiocarb],>60,>60,6,4,6,13,13,20,21,27,3,–,–
CC1(C)C(C=C(Br)Br)C1C(=O)OC(C#N)c1cccc(Oc2ccccc2)c1 (stereo not shown) [20 mg DTM],21,>60,23,39,45,52,66,79,86,75,9,–,–
"COC(=O)CCCCCCCCC(=O)OC [Derivative 1, Dimethyl sebacate]",–,–,–,–,–,–,–,–,–,–,–,acted weaker in both tests,"efficacy enhancement of the insecticide by the additive (summary in words) ([2]; details as worded, listed as Dimethyl sebacate): no efficacy enhancement"
"O=C(O)CCCCCCCCC(=O)O [Derivative 2, Sebacic acid]",–,–,–,–,–,–,–,–,–,–,–,–,"efficacy enhancement of the insecticide by the additive (summary in words) ([2]; details as worded, listed as Sebacic acid): no efficacy enhancement; efficacy enhancement of the insecticide by the additive (summary in words) ([2]; details as worded, listed as derivative 2): acted weaker in both tests"
"O=C(CCCCCCCCC(=O)OCc1ccccc1)OCc1ccccc1 [Derivative 3, Sebacic acid dibenzyl ester]",–,–,–,–,–,–,–,–,–,–,–,superior to Compound A (first test) or equal (second test),"efficacy enhancement of the insecticide by the additive (summary in words) ([2]; details as worded, listed as Sebacic acid dibenzyl ester): superior to Compound A; also recorded: improved markedly the efficacy of bendiocarb"
"O=C(CCCCCCCCC(=O)ON1C(=O)CCC1=O)ON1C(=O)CCC1=O [Derivative 4, Sebacic acid-bis-(N-succinimidyl)ester]",–,–,–,–,–,–,–,–,–,–,–,weaker as Compound A in both tests,"efficacy enhancement of the insecticide by the additive (summary in words) ([2]; details as worded, listed as Sebacic acid-bis-(N-succinimidyl)ester): equivalent to Compound A"
"CCCCCCCCON1C(C)(C)CC(OC(=O)CCCCCCCCC(=O)OC2CC(C)(C)N(OCCCCCCCC)C(C)(C)C2)CC1(C)C [Derivative 5, Bis(1-octyloxy-2,2,6,6-tetramethyl-4-piperidyl)sebacate]",–,–,–,–,–,–,–,–,–,–,–,weaker as Compound A in both tests,"efficacy enhancement of the insecticide by the additive (summary in words) ([2]; details as worded, listed as bis(1-octyloxy-2,2,6,6-tetramethyl-4-piperidyl)sebacate): inhibited the efficacy of bendiocarb"
"CC1(C)CC(OC(=O)CCCCCCCCC(=O)OC2CC(C)(C)NC(C)(C)C2)CC(C)(C)N1 [Derivative 6, Bis(2,2,6,6-tetramethyl-4-piperidyl)sebacate]",–,–,–,–,–,–,–,–,–,–,–,inhibited the efficacy of bendiocarb in both tests,"efficacy enhancement of the insecticide by the additive (summary in words) ([2]; details as worded, listed as bis(2,2,6,6-tetramethyl-4-piperidyl)sebacate): inhibited the efficacy of bendiocarb"
"CC1(C)CC(O)CC(C)(C)N1 [Derivative 7, 4-Hydroxy-2,2,6,6-tetramethylpiperidine]",–,–,–,–,–,–,–,–,–,–,–,superior to Compound A in the first test and inferior in the second test,–
"CN1C(C)(C)CC(O)CC1(C)C [Derivative 8, 1,2,2,6,6-Pentamethyl-4-piperidinol]",–,–,–,–,–,–,–,–,–,–,–,acted weaker in both tests,"efficacy enhancement of the insecticide by the additive (summary in words) ([2]; details as worded, listed as 1,2,2,6,6-Pentamethyl-4-piperidinol): no efficacy enhancement"
"CC1(C)CC(O)CC(C)(C)N1[O] [Derivative 9, 4-Hydroxy-2,2,6,6 tetramethylpiperidin-1-oxyl]",–,–,–,–,–,–,–,–,–,–,–,–,"efficacy enhancement of the insecticide by the additive (summary in words) [2]: acted weaker in both tests; efficacy enhancement of the insecticide by the additive (summary in words) ([2]; listed as 4-Hydroxy-2,2,6,6 tetramethylpiperidin-1-oxyl (free radical)): inhibited the efficacy of bendiocarb"
O=C1O[C@H]([C@@H](O)CO)C(O)=C1O [ascorbic acid],–,–,–,–,–,–,–,–,–,–,–,complete decrease of efficacy,–
O=C(O)CC(O)(CC(=O)O)C(=O)O [citric acid],–,–,–,–,–,–,–,–,–,–,–,better efficacy of bendiocarb alone,–
